For this data set, the system named is SNI mice. As to the kind of experiment: EEG/EMG sleep analysis (NREMS fragmentation by brief awakenings) in spared nerve injury mice treated with analgesic drugs. Format: in vivo. The conditions noted are these: for sleep fragmentation: mice with nerve injury, efficacy at doses active in patients with neuropathic pain. The source says: EEG/EMG implantation surgery: C57BL6/j mice were anesthetized with isoflurane gas (3% induction/2% maintenance) and placed in a stereotaxic apparatus (David Kopf Instruments, Tujunga, Calif.). […] Two flexible EMG electrodes(multistranded stainless steel wire; AS131, Cooner Wire, Chatsworth, Calif.) were inserted into the neck extensor muscles. All electrodes were previously soldered to a six-pin connector (MMX852-10-006-10-001000; Mill-Maz Mfg. Corp., Oyster Bay, N.Y.) and covered with epoxy glue to ensure insulation. The headmount was affixed to the animal's skull with dental acrylic cement, and the scalp wound was sutured closed behind the headmount. Mice were given meloxicam (5 mg/kg, i.p.) before they regained consciousness and then daily for 3 days and were housed singly after surgery.
EEG/EMG acquisition: Ten to fifteen days after EEG/EMG implantation, mice were transferred to individual sleep-recording cages (transparent cylindrical cage, 12″ diameter and 12″ height) in a sound-attenuated chamber with a 12:12 h light-dark cycle, ad libitum food and water, and connected to a tethered pre-amplifier (100× gain, 0.5 Hz high-pass filter for EEG, 10 Hz high-pass filter for EMG; Pinnacle Technology Inc., Lawrence, Kans., USA). The other end of the tether was plugged into a low-torque commutator (8204, Pinnacle Technology Inc., Lawrence, Kans., USA) for freely moving recordings. A data conditioning and acquisition system (DCAS, 8206) performed secondary amplification and filtering (low-pass filter: 100 Hz for EEG, 200 Hz for EMG). Mice habituated for 3-5 days to the recording setup before their baseline sleep-wake and sensory behaviors were measured.
Spared nerve injury (SNI): surgery was performed under 3% induction/2% maintenance with isoflurane on adult mice (8 to 12 weeks old). The tibial and common peroneal branches of the sciatic nerve were tightly ligated with a 5.0 silk suture and transected distally, while the sural nerve was left intact (Decosterd and Woolf, 2000). After injury, incision was sutured and mice were allowed to recover on heated pads before being returned to their homecage. The surgeon who performed the SNI was blinded to the genotype. This model causes permanent pain hypersensitivity. Sciatic nerve crush (SNcrush): surgery was performed under 3% induction/2% maintenance with isoflurane on adult mice (8 to 12 weeks old). The left sciatic nerve was exposed just below the sciatic notch under sterile conditions and then crushed using Dumont #5/45 forceps for 30 seconds under a dissection microscope. After the nerve injury, the incision wound was sutured and animals were allowed to recover on heated pads before being returned to their home cage. The surgeon who performed the SNcrush was blinded to the treatment. This model causes transient hypersensitivity before return to normal sensitivity. Sham control: surgery was performed under 3% induction/2% maintenance with isoflurane on adult mice (8 to 12 weeks old). The left sciatic nerve was exposed but left intact and the animals were allowed to recover on heated pads before being returned to their home cage.
EEG and EMG signals were digitized at a sampling rate of 400 Hz through Sirenia® Acquisition software (Pinnacle Technology Inc, Lawrence, Kans., USA) and converted to European Data Format (.EDF). Using SleepSign® for Animal (Kissei Comtec Co., Japan) software, EEG and EMG signals were digitally filtered (EEG, 0.5-100 Hz; EMG, 10-200 Hz) and scored semi-automatically using 10-s epochs, as wake, NREMS or REMS. This preliminary scoring was visually inspected by a trained experimenter, who was blinded to the experimental conditions, and corrected when appropriate. To evaluate sleep fragmentation, transient waking events occurring during NREMS were evaluated: these brief awakenings (BAs) were defined by a high-frequency low-amplitude EEG associated with an increase of EMG tone ranging from 2-15 s (Franken et al., 1991; Tobler et al., 1997). […]

Consider `NC(=O)N1c2ccccc2C=Cc2ccccc21` [carbamazepine], for which the sleep fragmentation result is reported as “dose-dependently normalize sleep fragmentation”. Also, the “average length of NREM” value (SNI mice, carbamazepine 5 mg/kg versus saline, FIGS. 8E-8G) was “restored the average length of NREM”.

For the compound `NCC1(CC(=O)O)CCCCC1` [gabapentin], the sleep fragmentation entry is listed as “dose-dependently normalize sleep fragmentation”. In addition, the “total amount of sleep” value (SNI mice with and without GBP treatment, FIG. 8C) is on record as “not affected”. For the same compound, under “SNI mice with and without GBP treatment, FIG. 8D”, the “latency on sleep (time from full wakefulness to sleep)” value is “slight increase”. For the same compound, where the note is “SNI mice, FIG. 8B”, the “time after administration at which effects on NREMS length were the strongest” value fell in the range of 0 to 2 h. Besides, the sedation result (SNI mice, gabapentin treatment) is given as “without causing sedation”. Moreover, the “average length of NREMS” value (SNI mice, gabapentin treatment, FIG. 8A) was “restored the average length of NREMS”.
